{
  "source": "patent US10745393B2",
  "about": "“Small molecular probes, processes and use thereof” (JAWAHARLAL NEHRU CENTRE FOR ADVANCED SCIENTIFIC RESEARCH, priority 2014, dated 2020)",
  "key": {"[1]": {"test": "Absorption, emission and quantum yield of probes without Aβ42 aggregates", "format": "physicochemical"}, "Aβ42 aggregates [2]": {"molecular_target": "T1, Aβ42 aggregates (Homo sapiens, UniProt P05067)", "T1 sequence (P05067 672-713 limits assumed)": "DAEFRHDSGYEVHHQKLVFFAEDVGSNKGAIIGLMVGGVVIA", "test": "Absorption / fluorescence response with Aβ42 fibrillar aggregates", "format": "binding"}, "Aβ42 monomers": {"molecular_target": "Aβ42 monomers (Homo sapiens, UniProt P05067)", "sequence (P05067 672-713 limits assumed)": "as above", "test": "Absorption / fluorescence response with Aβ monomers", "format": "binding", "settings": "QC 2 μM, Aβ monomers 10 μM"}, "[3]": {"molecular_target": "α-Synuclein (α-Syn) aggregates (Homo sapiens, UniProt P37840)", "test": "Selectivity: fluorescence with α-synuclein aggregates", "format": "binding"}, "[4]": {"molecular_target": "T2, islet amyloid polypeptide (IAPP) aggregates (Homo sapiens, UniProt P10997)", "T2 construct": "A 0.1 mg (Merck, calbiochem) sample of amylin is dissolved in 100 μL of acetonitrile; purchased Merck, calbiochem", "T2 sequence (P10997 34-70 limits assumed)": "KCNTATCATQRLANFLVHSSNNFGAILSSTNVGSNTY", "test": "Selectivity: fluorescence with IAPP aggregates", "format": "binding", "settings": "IAPP aggregates 20 μM"}, "[5]": {"molecular_target": "bovine serum albumin (BSA) (Bos taurus, UniProt P02769)", "sequence (P02769 25-607)": "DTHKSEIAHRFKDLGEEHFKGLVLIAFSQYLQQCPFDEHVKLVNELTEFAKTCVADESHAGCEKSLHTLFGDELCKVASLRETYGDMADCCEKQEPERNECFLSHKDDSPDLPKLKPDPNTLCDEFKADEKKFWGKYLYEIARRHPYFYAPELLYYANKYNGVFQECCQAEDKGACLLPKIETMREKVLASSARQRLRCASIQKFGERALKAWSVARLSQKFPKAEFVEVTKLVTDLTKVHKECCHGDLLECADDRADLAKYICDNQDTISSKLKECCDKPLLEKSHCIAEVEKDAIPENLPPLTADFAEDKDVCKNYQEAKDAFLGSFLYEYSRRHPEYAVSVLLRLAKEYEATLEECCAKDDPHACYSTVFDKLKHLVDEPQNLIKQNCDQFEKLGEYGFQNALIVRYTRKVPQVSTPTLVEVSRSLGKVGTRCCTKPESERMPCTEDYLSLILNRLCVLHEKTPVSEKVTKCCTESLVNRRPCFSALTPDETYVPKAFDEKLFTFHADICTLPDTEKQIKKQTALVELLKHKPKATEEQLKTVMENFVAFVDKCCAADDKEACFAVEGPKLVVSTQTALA", "test": "Selectivity: fluorescence with BSA", "format": "binding"}, "calf thymus DNA": {"test_system": "calf thymus DNA", "test": "Selectivity of QC: fluorescence with calf thymus DNA", "format": "binding", "settings": "QC 2 μM, DNA 20 μM", "text": "Selective fluorescence enhancement is shown by QC probe, with strong binding affinity. Probe QC has very good lipophilicity to cross the BBB and serum stability. QC detects Aβ plaques in CSF samples of patient which can be used in early diagnosis of Alzheimer's Disease. Probe QC is a molecular rotor moiety containing an electron withdrawing group in conjugation with an electron releasing group with a freely rotatable bond. Prevention of internal rotation in QC by surrounding medium rigidity, leads to a decrease in the non-radiative decay rate and an increase in fluorescence emission. […] In presence of Aβ42 aggregates (10 μM) prepared in PBS buffer (10 mM), absorption maxima at 521 nm (λex) and a blue shifted emission maxima (10 nm) with huge (>100 fold) fluorescence enhancement ([…]=654 nm) and a large stoke shift of ˜130 nm is observed (FIG. 47). […] These peptides are known to form fibrillar aggregates similar to Aβ42 aggregates. […] No such changes are observed in case of IAPP aggregates."}, "Aβ42 aggregates [6]": {"molecular_target": "T1, Aβ42 aggregates", "test": "Binding saturation assay (fluorescence) for binding constant", "settings": "fluorescence saturation curve; Aβ42 aggregates 10 μM (QC) or 2 μM (TC); read-out: dissociation constant Kd"}, "[7]": {"molecular_target": "ThT/Aβ42 aggregate complex (Homo sapiens, UniProt P05067)", "sequence (P05067 672-713 limits assumed, one chain of several)": "as the sequence (P05067 672-713 limits assumed) above", "test": "ThT displacement / FRET assay", "format": "binding", "settings": "decay at 483 nm, enhancement at 654 nm"}, "[8]": {"test": "Partition coefficient (Log P), shake flask method", "format": "physicochemical", "settings": "n-octanol/water", "method": "Log P value is calculated by Shake flask (or tube) method. To an equilibrated solution of n-octanol and water in a separating funnel, probe QC/TC is added and agitated well. The solution is left for 30 minutes for proper separation of immiscible solvents, then the distribution of QC/TC is calculated using UV spectroscopy and the obtained concentrations are used in below equation to obtain log P value log P=log [Conc. of QC or TC in n-octanol/Conc. of QC or TC in water]"}, "[9]": {"test": "In vitro stability in human blood serum (HPLC)", "format": "in vitro ADME", "settings": "60 min incubation with human blood serum at 37° C.", "method": "The in vitro stability of QC in […] is determined by incubating QC (10 μM in H2O, 50 μM) with 300 μL of human blood serum at 37° C. for 30 and 60 min. Proteins are precipitated by adding 500 μL of acetonitrile […] at 5000 rpm for 5 min at 4° C. The supernatant is collected. Approximately 0.1 mL of the supernatant solution is analyzed using HPLC."}, "[10]": {"test_system": "Aβ42 aggregates expressed in S. cerevisiae (BY4741)", "format": "cell-based"}, "[11]": {"test_system": "α-synuclein (A30P) aggregates expressed in S. cerevisiae (BY4741)", "format": "cell-based", "settings": "QC 5 μM"}, "[12]": {"test_system": "Aβ plaques in CSF samples", "test": "Detection of amyloid plaques in CSF samples by fluorescence", "settings": "QC 10 μM", "method": "In the present experiment, Amyloid plaques in the CSF sample are detected as it is a hallmark of AD using ThT and QC. […] QC (10 μM) is used to detect Aβ plaques in the same set of CSF samples, which show the same trend as Thioflavin assay and stains CSF3, CSF5, CSF6 and CSF12 samples (FIG. 57 and table 6)."}, "[13]": {"settings": "cresyl violet perchlorate standard"}},
  "data": [
    {"smiles": "CCN(CC)c1ccc2cc(/C=C/c3ccc4ccccc4[n+]3C)c(=O)oc2c1.[I-]", "note": "[QC, 2-(2-(7-(diethylamino)-2-oxo-2H-chromen-3-yl)vinyl)-1-methylquinolin-1-ium Iodide]", "values": [
      {"measurement": "absorption maximum in absence of Aβ42 aggregates", "setting": "[1]; PBS buffer (10 mM, pH 7.4)", "result": 516, "unit": "nm"},
      {"measurement": "emission maximum in absence of Aβ42 aggregates", "setting": "[1]; PBS buffer, very weak fluorescence", "result": 664, "unit": "nm"},
      {"measurement": "quantum yield, unbound", "setting": "[1]; [13]", "result": 0.08},
      {"measurement": "Stokes shift upon binding to Aβ42 aggregates", "setting": "Aβ42 aggregates [2]", "result": "~130", "unit": "nm"},
      {"measurement": "blue shift of emission maxima in presence of Aβ42 aggregates", "setting": "Aβ42 aggregates [2]; QC 2 μM, Aβ42 aggregates 10 μM", "result": 10, "unit": "nm"},
      {"measurement": "absorption maxima in presence of Aβ42 aggregates", "setting": "Aβ42 aggregates [2]; QC 2 μM, Aβ42 aggregates 10 μM, PBS 10 mM", "result": 521, "unit": "nm"},
      {"measurement": "quantum yield after binding to Aβ42 aggregates", "setting": "Aβ42 aggregates [2]; [13]", "result": 0.36},
      {"measurement": "emission maximum in presence of Aβ42 aggregates", "setting": "Aβ42 aggregates [2]; probe 2 μM", "result": 654, "unit": "nm"},
      {"measurement": "fluorescence enhancement in presence of Aβ42 aggregates", "setting": "Aβ42 aggregates [2]; probe 2 μM, PBS buffer", "result": "> 100", "unit": "fold"},
      {"measurement": "absorption maxima in presence of Aβ monomers", "setting": "Aβ42 monomers", "result": 521, "unit": "nm"},
      {"measurement": "fluorescence enhancement in presence of Aβ monomers", "setting": "Aβ42 monomers; λem=654 nm", "result": "~7", "unit": "fold"},
      {"measurement": "blue shift of λem maxima with α-Syn aggregates", "setting": "[3]; QC 2 μM, α-Syn 20 μM", "result": "~9", "unit": "nm"},
      {"measurement": "fluorescence enhancement with α-Syn aggregates", "setting": "[3]; α-Syn aggregates 20 μM", "result": "negligible enhancement in fluorescence"},
      {"measurement": "fluorescence enhancement with IAPP aggregates", "setting": "[4]", "result": "negligible enhancement in fluorescence"},
      {"measurement": "fluorescence enhancement with BSA", "setting": "[5]; BSA 20 μM", "result": "considerable fluorescence enhancement is not observed"},
      {"measurement": "shift of emission with BSA", "setting": "[5]; QC 2 μM", "result": "~34", "unit": "nm"},
      {"measurement": "λem with BSA", "setting": "[5]; QC 2 μM", "result": 616, "unit": "nm"},
      {"measurement": "fluorescence enhancement with calf thymus DNA", "setting": "calf thymus DNA", "result": "slight fluorescence enhancement"},
      {"measurement": "Kd", "setting": "Aβ42 aggregates [6]", "result": "0.082 ± 0.0023", "unit": "µM"},
      {"measurement": "displacement of ThT from ThT/Aβ42 aggregate complex", "setting": "[7]", "result": "effective displacement of ThT by QC"},
      {"measurement": "logP", "setting": "[8]", "result": 2.4},
      {"measurement": "probe identified intact", "setting": "[9]", "result": "more than 97%"},
      {"measurement": "fluorescence correlation coefficient with GFP tagged Aβ42 aggregates", "setting": "[10]; QC 5 μM", "result": 83.7, "unit": "%"},
      {"measurement": "staining of S. cerevisiae expressing Aβ42 aggregates", "setting": "[10]; QC 5 μM, live cells", "result": "stains S. cerevisiae expressing Aβ42 aggregates selectively"},
      {"measurement": "mean Pearson co-localization coefficient", "setting": "[10]; live cells counted (n=50)", "result": 0.837},
      {"measurement": "staining of S. cerevisiae strains with α-synuclein (A30P) aggregates", "setting": "[11]", "result": "not stained"},
      {"measurement": "Normalized fluorescence intensity (QC)", "setting": "[12]; sample CSF1", "result": 12.50},
      {"measurement": "Normalized fluorescence intensity (QC)", "setting": "[12]; sample CSF2", "result": 3.24},
      {"measurement": "Normalized fluorescence intensity (QC)", "setting": "[12]; sample CSF3", "result": 29.60},
      {"measurement": "Normalized fluorescence intensity (QC)", "setting": "[12]; sample CSF4", "result": 10.70},
      {"measurement": "Normalized fluorescence intensity (QC)", "setting": "[12]; sample CSF5", "result": 51.50},
      {"measurement": "Normalized fluorescence intensity (QC)", "setting": "[12]; sample CSF6", "result": 29.60},
      {"measurement": "Normalized fluorescence intensity (QC)", "setting": "[12]; sample CSF7", "result": 6.40},
      {"measurement": "Normalized fluorescence intensity (QC)", "setting": "[12]; sample CSF8", "result": 11.08},
      {"measurement": "Normalized fluorescence intensity (QC)", "setting": "[12]; sample CSF9", "result": 6.30},
      {"measurement": "Normalized fluorescence intensity (QC)", "setting": "[12]; sample CSF10", "result": 5.40},
      {"measurement": "Normalized fluorescence intensity (QC)", "setting": "[12]; sample CSF11", "result": 6.70},
      {"measurement": "Normalized fluorescence intensity (QC)", "setting": "[12]; sample CSF12", "result": 44.40},
      {"measurement": "Normalized fluorescence intensity (QC)", "setting": "[12]; sample CSF13", "result": 3.20},
      {"measurement": "Normalized fluorescence intensity (QC)", "setting": "[12]; sample CSF14", "result": 12.30}
    ]}
  ]
}
